Experimental data: patent publication US11938136B2, “Compositions for treating spinal muscular atrophy” (Hoffmann-La Roche Inc., priority 2015, dated 2024)

Key:
[1] = tested on: SMN protein; assay: SMN protein in brain and quadriceps muscle of C/C-allele mice (HTRF); format: in vivo, mouse
Procedure: (A) SMN protein in brains of C/C-allele mice. (B) SMN protein in brains of SMNΔ7 mice. (C) SMN protein in quadriceps muscle of C/C-allele mice. (D) SMN protein in quadriceps muscle of SMNΔ7 mice. C/C-allele mice and SMNΔ7 mice were treated with the compound of Example 20. One hour after the last dose, brains and quadriceps muscles were collected and levels of SMN protein were assessed by HTRF. Data represent means SEM of 5-6 animals per group and are expressed as fold change vs. vehicle-treated controls. *=p<0.05, **=p<0.01, ***=p<0.001 vs. untreated controls.
In vivo, the compound of Example 20 increases SMN protein in the brain and muscle in the severe SMNΔ7 model and the milder C/C-allele model, carrying human SMN2 transgenes. Adult C/C-allele mice were treated for 10 days with vehicle or the compound of Example 20 (1, 3 or 10 mg/kg PO, daily), and 3 days old (P3) SMNΔ7 mice were treated for 7 days with vehicle or the compound of Example 20 (0.1, 0.3, 1 or 3 mg/kg IP, daily). […] In SMNΔ7 mice, the SMN protein increase was only partial in both brain and muscle, reaching approximately 43% (brain) and 55% (muscle) of protein levels in heterozygous mice.

[2] = tested on: SMN1 splicing; assay: Ex vivo whole blood assay, SMN1 splicing; format: cell-based, human; conditions: whole blood cells from healthy volunteers, 4 hours
Procedure: (A) SMN2 splicing in SMA Type 1 fibroblasts. (B) SMN protein in SMA Type 1 fibroblasts. (C) SMN protein in SMA Type 1 motor neurons. (D) SMN1 and SMN2 splicing in whole blood derived from HV. Fibroblasts from SMA Type 1 patients were cultured for 24 hours (A) or 48 hours (B); motor neurons from SMA Type 1 patient iPSCs (induced Pluripotent Stem Cells) were cultured for 72 hours (C) and whole blood cells from healthy volunteers (HV) for 4 hours (D) in the presence of the compound of Example 20. SMN splicing was assessed by RT-PCR, and SMN protein levels were assessed by homogenous time-resolved fluorescence (HTRF) in fibroblast lysates, and by immunostaining for SMN in motor neurons. Data represent means standard error (SEM) of 3 evaluations per data point and are expressed as fold change vs. untreated controls. To further assess SMN2 splicing as a potential blood biomarker, an ex vivo assay was developed using whole blood cells from healthy volunteers in which SMN1 and SMN2 splicing was assessed after 4 hours treatment with the compound of Example 20 (at this time point, maximal splicing changes were achieved).

[3] = tested on: splicing events and expression levels of genes; assay: Transcriptional profiling analysis; format: cell-based
Text: The specific function of STRN3, SLC25A17, and GGCT and consequences of their dysregulation have not been elucidated so far. These three genes are also consistently found to be affected at the higher dose (5-fold higher than the EC90), a dose used in order to illustrate the maximum effect of this compound. Splicing events of 11 genes, including the genes FoxM1 and MADD, were affected at the higher dose but not by the lower dose. FoxM1 and MADD have been described as being involved in cell cycle regulation and apoptosis, respectively.

[4] = tested on: SMN protein; assay: SMN protein assay (HTRF) in SMA patient fibroblast cells; format: cell-based, human; conditions: SMA patient fibroblasts
Text: The term “EC1.5x concentration for SMN protein expression” (or “EC1.5x SMN protein”) is defined as that concentration of test compound that is effective in producing 1.5 times the amount of SMN protein in an SMA patient fibroblast cell compared to the amount produced from the vehicle control.
(A) SMN2 splicing in SMA Type 1 fibroblasts. (B) SMN protein in SMA Type 1 fibroblasts. (C) SMN protein in SMA Type 1 motor neurons. (D) SMN1 and SMN2 splicing in whole blood derived from HV. […] SMN splicing was assessed by RT-PCR, and SMN protein levels were assessed by homogenous time-resolved fluorescence (HTRF) in fibroblast lysates, and by immunostaining for SMN in motor neurons. Data represent means standard error (SEM) of 3 evaluations per data point and are expressed as fold change vs. untreated controls.
The SMN HTRF (homogeneous time resolved fluorescence) assay is used to quantify the level of SMN protein in SMA patient fibroblast cells treated with test compounds. […]
Cells are thawed and cultured in DMEM-10% FBS for 72 hours. Cells are trypsinized, counted and re-suspended to a concentration of 25,000 cells/mL in DMEM-10% FBS. […] Fluorescence for each well of the plate at 665 nm and 620 nm is measured on an EnVision multilabel plate reader (Perkin-Elmer). […]

In the case of `Cc1cn2nc(-c3cc(=O)n4cc(N5CCNC6(CC6)C5)ccc4n3)cc(C)c2n1` [Example 20, 7-(4,7-diazaspiro[2.5]octan-7-yl)-2-(2,8-dimethylimidazo[1,2-b]pyridazin-6-yl)pyrido[1,2-a]pyrimidin-4-one], the “SMN levels in muscle compared with heterozygous mice” value ([1]; C/C-allele mice, 10 mg/kg dose) is reported as “no different from those in heterozygous mice”, the “maximum increase of SMN protein levels in brain and muscle tissue” value ([1]; adult C/C-allele mice, 10 mg/kg PO daily, 10 days) is reported as 2-3 fold and the “effect on SMN1 splicing” value [2] is reported as “largely unaffected”. For the same compound, the “number of genes whose expression levels were changed (p<0.01)” value ([3]; 121 nM dose) was 0, the “genes whose splicing events were affected” value ([3]; 121 nM, compared to control) was “STRN3, SLC25A17 and GGCT” and the “number of genes whose splicing events were affected at the higher dose but not by the lower dose” value ([3]; higher dose, 5-fold higher than the EC90, including FoxM1 and MADD) was 11. For the same compound, the EC90 ([3]; read-out: EC90 (therapeutically relevant concentration)) was 121 nM and the “maximal increase in SMN protein above untreated cells” value [4] was 60-80%.
